Experimental data taken from patent US4119724A, “Fungicidal compositions containing phosphorous acid and derivatives thereof” (Pepro, priority 1973, dated 1978).

What was measured:
Pythium de Baryanum = test: In vitro test on mycelian growth (Agar Plate dilution), Pythium; type: cell-based; conditions: 0.25 g/l, 4 days at 20° C
Method: (§1) In vitro Test on Mycelian Growth
(§2) The compounds according to the invention are studied for their effect on the mycelian growth of the following fungi:
(§3) The "Agar Plate dilution" method is used for each test. A mixture of gelose and an acetone solution or a wettable powder containing the material to be tested in a concentration of 0.25 g/l is poured into a Petri dish at a temperature of approximately 50° C.
(§4) The gelose-containing mixture is then allowed to solidify, after which mycelian culture discs of the fungus are placed on it.
(§5) After 4 days at 20° C., the surface area of the inhibition zone observed is evaluated and expressed as a percentage of the inoculated surface area.

Rhizoctonia solani = test: In vitro test on mycelian growth (Agar Plate dilution), Rhizoctonia; type: cell-based; conditions: 0.25 g/l, 4 days at 20° C
Method: as §1, §2
Rhizoctonia solani, responsible for neck canker
as §3, §4, §5

Plasmopara viticola [1] = test: In vivo test on vine plants, preventive treatment; conditions: 0.5 g/l, leaves sprayed 48 hours before contamination, inspected 9 days after infestation
Plasmopara viticola [2] = test: Systemic test by root absorption on vine mildew; type: in vivo; conditions: 0.5 g/l, absorbed by the roots, assessed after about 9 days
Plasmopara viticola [3] = test: In vivo test on vine plants, treatment after contamination; conditions: 1 g/l, inspected 9 days after contamination
Solubility in water = type: physicochemical
Plasmopara viticola [4] = test: Open-air test on vine stocks; type: in vivo; conditions: 2 g/l
Method: Groups of vine stocks (Gamay variety) are treated on the 27th June, 4th, 11th and 18th July, 1st and 7th August, with a spray of wettable powder containing 50% of an active material, namely compound 13 and manganese ethylene-1,2-bis-dithiocarbamate or manebe.
It should be noted that, in August and September, the mildew Plasmopara viticola was extremely virulent on account of heavy rainfall. For a uniform dose of 2 g/l, the results are expressed as percentage protection in relation to a contaminated but untreated control.

Phytophtora cinnamomi = test: Avocado test; type: in vivo; conditions: soil sprayed with 3 g/l solution, after 20 days
Excerpt: Avocado seedlings (variety Persea indica) are planted in a soil infested with Phytophtora cinnamomi, after which the soil is sprayed with a solution containing 3 g/l of ammonium phosphite. Some seedlings are left untreated as controls. Under these conditions, it is found after 20 days that the roots of the controls are completely dead, whilst 90% of the treated seedlings are healthy.

Phytophtora parasitica = test: Pineapple test; type: in vivo; conditions: 0.5 g/l spray 48 hours after contamination, after 30 days
Method: Pineapple seedlings are contaminated with Phytophtora parasitica and then treated after 48 hours by spraying with a solution containing 0.5 g/l of calcium phosphite.

Botrytis cinerea = test: In vitro test on mycelian growth (Agar Plate dilution), Botrytis; type: cell-based; conditions: 0.25 g/l, 4 days at 20° C
Method: as §1, §2
Botrytis cinerea, responsible for grey rot
as §3, §4, §5

Piricularia oryzae = type: cell-based; conditions: 0.25 g/l, 4 days at 20° C
[5] = inspection date 2/10 (approx. 2 months after last treatment)
[6] = inspection date 3/9 (approx. 1 month after last treatment)
[7] = inspection date 20/10 (approx. 2.5 months after last treatment)

Compound	protection (preventive treatment) (Plasmopara viticola [1])	protection by root absorption (systemic) (Plasmopara viticola [2])	stop of the development of mildew (treatment after contamination) (Plasmopara viticola [3])	further results
NCCO.O=[PH](O)O [Compound 8, acid monoethanolamine phosphite]				inhibition of mycelian growth (inhibition zone as percentage of the inoculated surface area) (Pythium de Baryanum): 51%; inhibition of mycelian growth (inhibition zone as percentage of the inoculated surface area) (Rhizoctonia solani): 60%
O=[PH]([O-])[O-].[Ca+2] [Compound 10, neutral calcium phosphite]	total protection	good protection		
O=[PH]([O-])[O-].[Ba+2] [Compound 12, neutral barium phosphite]	total protection	total protection		
O=[PH]([O-])[O-].[Zn+2] [Compound 17, neutral zinc(II)phosphite]	total protection	total protection	completely stop the development of mildew	
O=[PH]([O-])[O-].[Mg+2] [Compound 18, neutral magnesium phosphite]	good protection			
O=[PH]([O-])[O-].O=[PH]([O-])[O-].O=[PH]([O-])[O-].[Al+3].[Al+3] [Compound 19, neutral aluminium phosphite]	total protection	total protection		
O=[PH](O)O.c1c[nH]cn1 [Compound 21, acid phosphite of 1,3-imidazole]	good protection	total protection	completely stop the development of mildew	
Nc1ccccc1 [Compound 22]	good protection	total protection	completely stop the development of mildew	solubility in water (Solubility in water): insoluble
NC1CCCCC1 [Compound 23]		good protection		solubility in water (Solubility in water): insoluble
C1COCCN1 [Compound 25]	good protection	total protection	completely stop the development of mildew	solubility in water (Solubility in water): insoluble
CC(C)c1ccc(N)cc1 [Compound 26]	good protection		completely stop the development of mildew	solubility in water (Solubility in water): insoluble
CC(C)c1cccc(N)c1 [Compound 27]	good protection			solubility in water (Solubility in water): insoluble
S=C([S-])NCCNC(=S)[S-].[Mn+2] [Manebe, manganese ethylene-1,2-bis-dithiocarbamate, reference compound]				percentage protection in relation to contaminated untreated control (Plasmopara viticola [4]; [5]): 62%; percentage protection in relation to contaminated untreated control (Plasmopara viticola [4]; [6]): 96%; percentage protection in relation to contaminated untreated control (Plasmopara viticola [4]; [7]): 15%
N.N.O.O=[P+](O)O [ammonium phosphite]				treated seedlings healthy (Phytophtora cinnamomi): 90%
calcium phosphite				inhibition of the fungus in treated seedlings (Phytophtora parasitica): completely inhibited
cuprous phosphite [Compound 20]	total protection			
manganous phosphite [Compound 16]	total protection		completely stop the development of mildew	
neutral copper(II)phosphite [Compound 13]	total protection	good protection		percentage protection in relation to contaminated untreated control (Plasmopara viticola [4]; [5]): 66%; percentage protection in relation to contaminated untreated control (Plasmopara viticola [4]; [6]): 94%; percentage protection in relation to contaminated untreated control (Plasmopara viticola [4]; [7]): 50%
neutral nickel (II)phosphite [Compound 14]	total protection		completely stop the development of mildew	inhibition of mycelian growth (inhibition zone as percentage of the inoculated surface area) (Rhizoctonia solani): 78%; inhibition of mycelian growth (inhibition zone as percentage of the inoculated surface area) (Botrytis cinerea): 48%; inhibition of mycelian growth (inhibition zone as percentage of the inoculated surface area) (Piricularia oryzae): 59%
trivalent iron phosphite [Compound 15]	good protection			
